Values of other authors, collected in patent US11752142B2, “Oral pharmaceutical compositions of dabigatran etexilate” (Breckenridge Pharmaceutical, Inc., priority 2012, dated 2023).
Structures can show the parent of a compound that is named as a salt. Where two headings read alike, the source gives them in different places. Blank lines part the entries; values can stand above or below the compound they belong to.

Experiments:
[1] = not given; remark: listed apart in the source
[2] = not given; remark: listed apart in the source

sensitivity to light irradiation (light irradiation): not sensitive to light irradiation | stability (solid state): stable in the solid state | aqueous solubility ([1]; acidic media): rather high solubility | aqueous solubility ([1]; neutral and basic media): very poor solubility | BCS class ([1]; poor aqueous solubility but good membrane permeability): BCS Class II
Structure (SMILES): CCCCCCOC(=O)NC(=N)c1ccc(NCc2nc3cc(C(=O)N(CCC(=O)OCC)c4ccccn4)ccc3n2C)cc1 [DEM, dabigatran etexilate mesylate]

Tmax ([2]; absorption of the active): 45 minutes-1 hour
Structure (SMILES): CCCCCCOC(=O)NC(=N)c1ccc(NCc2nc3cc(C(=O)N(CCC(=O)OCC)c4ccccn4)ccc3n2C)cc1 [dabigatran etexilate, 3-[(2-{4-(hexyloxycarbonylamino-imino-methyl)-phenylamino]methyl}-1-methyl-1H-benzimidazol-5-carbonyl)-pyridin-2-yl-amino-propionic acid ethyl ester]

absolute bioavailability ([2]; dabigatran following oral administration of dabigatran etexilate): 3-7% | elimination half life ([2]; following oral administration of dabigatran etexilate): 12 to 17 h
Structure (SMILES): [H]/N=C(/N)c1ccc(NCc2nc3cc(C(=O)N(CCC(=O)O)c4ccccn4)ccc3n2C)cc1 [dabigatran]
